Laboratory results published in patent publication US7811352B2, “Fertilizer compositions and methods of using” (priority 2005, dated 2010).

Key:
Assay type in all cases: in vivo
[1] = system: creeping bentgrass for greens; test: Turfgrass quality and color ratings, creeping bentgrass for greens (Example 12); settings: scale 1-10
Source text: (§1) In this Example, the effect of a fertilizer comprising lysine on turfgrass growth was examined. The effects of lysine (HCl) and LIQUID LYSINE on a common type of golf course greens quality turfgrass (creeping bentgrass for greens) were compared with those of CoRoN® brand fertilizer (commercially available from Helena Chemical Co., Collierville, Tenn.).
(§2) Nine fertilizer treatments comprising three concentrations of each fertilizer composition (Corono® (N—P—K, 14-2-14), LIQUID LYSINE (N—P—K, 10-2-1), and lysine (HCl) (N—P—K, 15-2-1)) were prepared and applied to 3 replications of creeping bentgrass for use on golf course greens. The lysine (HCl) (250 g) was dissolved in water (500 mL) prior to application. Each fertilizer treatment was applied in concentrations of 0.7 g N/m^2, 1.4 g N/m^2, and 2.8 g N/m^2. All applications were made using an Ortho Heavy Duty hand pump sprayer with all products being mixed with 126 mL of water for application. Plot size was 2 ft×6 ft set up as a randomized complete block. Irrigation was applied following application. Plots were rated for turfgrass quality and color (scale of 1-10 where 10=dark green turf, 1=dead/brown turf, and 6minimally acceptable turf) and phytotoxicity (% bum) throughout the study period. Quality, color, and phytotoxicity were measured on day 7, day 14, day 2I1, day 28, day 35, and day 42 after application. All data was subject to statistical analysis and significant means were determined.

[2] = system: creeping bentgrass for greens; test: Phytotoxicity (% burn), creeping bentgrass for greens (Example 12)
Source text: as §1, §2

[3] = system: rhizomatous tall fescue grass; test: Phytotoxicity (% burn), rhizomatous tall fescue (Example 14)
Description: In this Example, the effect of a fertilizer comprising lysine on turfgrass growth was examined. The effects of lysine (HCl) and LIQUID LYSINE on a common type of lawn quality turfgrass (rhizomatous tall fescue) were compared with those of CoRoN® brand fertilizer.
Six fertilizer treatments comprising two concentrations of each fertilizer composition (Coron® (N—P—K, 14-2-34), LIQUID LYSINE (N—P—K, 10-2-1), and lysine (HCl) (N—P—K, 15-2-1)) were prepared and applied to 3 replications of rhizomatous tall fescue grass. The solutions of lysine (HCl) (dissolved in 0.5 gal water), LIQUID LYSINE and Coran were applied using a Birchmeier backpack sprayer with a 5 foot spray pattern, Each fertilizer treatment was applied in either a 3-split application with an application rate of 2 lb N/1000 ft^2 or a 6-split application with an application rate of 1 lb N/1000 ft^2. Plot size was 9 ft×9 ft set up as a randomized complete block. Irrigation was applied following application. Plots were rated for turfgrass quality and color (scale of 1-10 where 10=dark green turf, 1 =dead/brown turf, and 6=minimally acceptable turf and phytotoxicity (% burn) throughout the study period and compared with two untreated plots. Quality, color, and phytotoxicity were measured on day 7, day 14, day 21, day 28, day 35, and day 42 after application. All data was subject to statistical analysis and significant means were determined. Average turfgrass quality ratings for the treatments are presented in Table 21. Average turfgrass color ratings are presented in Table 22. Average phytotoxicity ratings (as % burn) are presented in Table 23.

[4] = system: lawn height, Kentucky bluegrass; test: Injury rating of lawn height Kentucky bluegrass after fertilization (Example 5); settings: about two weeks after application
Description: In this Example, the efficacy of fertilizers on lawn height, Kentucky bluegrass was examined. Fertilizer compositions according to several embodiments of the present disclosure were prepared and compared to the commercial fertilizer products, urea 46-0-0 (granular) fertilizer, Lebanon fertilizer 21-0-12 (granular, commercially available from Lebanon Seaboard Corporation, Lebanon, Pa.) and Milorganite 6-2-0 (granular, commercially available from Milorganite, Milwaukee, Wis.). The fertilizer compositions were applied to the turf grass prior to winter dormancy at a rate equivalent to supplying about 1.0 pounds of nitrogen (N) per 1000 square feet. Each of the fertilizer compositions were applied at substantially equal rates of lbs of nitrogen (N) per 1000 square feet. Table 2 illustrates the response of lawn height, Kentucky bluegrass to fertilization using various exemplary fertilizers of the present invention, taken about two weeks after application of the fertilizer. The letters in the Color and Injury columns correspond to Duncan's Multiple Range Test.

Cl.NCCCC[C@H](N)C(=O)O [Lys (HCl) 15% N, L-lysine monohydrochloride]
Color Ratings - Creeping Bentgrass ([1]; Rate 0.7 gN/m^2, Day 7): 6.0abc
Quality Ratings - Creeping Bentgrass ([1]; Rate 0.7 gN/m^2, Day 7): 5.3a
Color Ratings - Creeping Bentgrass ([1]; Rate 0.7 gN/m^2, Day 14): 6.0cd
Quality Ratings - Creeping Bentgrass ([1]; Rate 0.7 gN/m^2, Day 14): 6.3cd
Color Ratings - Creeping Bentgrass ([1]; Rate 0.7 gN/m^2, Day 21): 6.3a
Quality Ratings - Creeping Bentgrass ([1]; Rate 0.7 gN/m^2, Day 21): 6.7a
Color Ratings - Creeping Bentgrass ([1]; Rate 0.7 gN/m^2, Day 28): 6.3ab
Quality Ratings - Creeping Bentgrass ([1]; Rate 0.7 gN/m^2, Day 28): 6.3a
Color Ratings - Creeping Bentgrass ([1]; Rate 0.7 gN/m^2, Day 35): 6.3a
Quality Ratings - Creeping Bentgrass ([1]; Rate 0.7 gN/m^2, Day 35): 6.3ab
Color Ratings - Creeping Bentgrass ([1]; Rate 0.7 gN/m^2, Day 42): 7.3a
Quality Ratings - Creeping Bentgrass ([1]; Rate 0.7 gN/m^2, Day 42): 7.0a
Color Ratings - Creeping Bentgrass ([1]; Rate 1.4 gN/m^2, Day 7): 5.0c
Quality Ratings - Creeping Bentgrass ([1]; Rate 1.4 gN/m^2, Day 7): 5.7a
Color Ratings - Creeping Bentgrass ([1]; Rate 1.4 gN/m^2, Day 14): 5.0e
Quality Ratings - Creeping Bentgrass ([1]; Rate 1.4 gN/m^2, Day 14): 5.7de
Color Ratings - Creeping Bentgrass ([1]; Rate 1.4 gN/m^2, Day 21): 6.0a
Quality Ratings - Creeping Bentgrass ([1]; Rate 1.4 gN/m^2, Day 21): 7.0a
Color Ratings - Creeping Bentgrass ([1]; Rate 1.4 gN/m^2, Day 28): 6.7ab
Quality Ratings - Creeping Bentgrass ([1]; Rate 1.4 gN/m^2, Day 28): 7.0a
Color Ratings - Creeping Bentgrass ([1]; Rate 1.4 gN/m^2, Day 35): 5.7ab
Quality Ratings - Creeping Bentgrass ([1]; Rate 1.4 gN/m^2, Day 35): 5.3cd
Color Ratings - Creeping Bentgrass ([1]; Rate 1.4 gN/m^2, Day 42): 7.0a
Quality Ratings - Creeping Bentgrass ([1]; Rate 1.4 gN/m^2, Day 42): 6.7a
Color Ratings - Creeping Bentgrass ([1]; Rate 2.8 gN/m^2, Day 7): 5.3bc
Quality Ratings - Creeping Bentgrass ([1]; Rate 2.8 gN/m^2, Day 7): 5.7a
Color Ratings - Creeping Bentgrass ([1]; Rate 2.8 gN/m^2, Day 14): 5.0e
Quality Ratings - Creeping Bentgrass ([1]; Rate 2.8 gN/m^2, Day 14): 5.3e
Color Ratings - Creeping Bentgrass ([1]; Rate 2.8 gN/m^2, Day 21): 6.0a
Quality Ratings - Creeping Bentgrass ([1]; Rate 2.8 gN/m^2, Day 21): 7.0a
Color Ratings - Creeping Bentgrass ([1]; Rate 2.8 gN/m^2, Day 28): 6.3ab
Quality Ratings - Creeping Bentgrass ([1]; Rate 2.8 gN/m^2, Day 28): 7.0a
Color Ratings - Creeping Bentgrass ([1]; Rate 2.8 gN/m^2, Day 35): 5.0b
Quality Ratings - Creeping Bentgrass ([1]; Rate 2.8 gN/m^2, Day 35): 4.3 days
Color Ratings - Creeping Bentgrass ([1]; Rate 2.8 gN/m^2, Day 42): 6.3a
Quality Ratings - Creeping Bentgrass ([1]; Rate 2.8 gN/m^2, Day 42): 6.7a
Phytotoxicity (% Burn) - Creeping Bentgrass ([2]; Rate 0.7 gN/m^2, Day 7): 2.3b %
Phytotoxicity (% Burn) - Creeping Bentgrass ([2]; Rate 0.7 gN/m^2, Day 14): 15.0c %
Phytotoxicity (% Burn) - Creeping Bentgrass ([2]; Rate 0.7 gN/m^2, Day 21): 10.0d %
Phytotoxicity (% Burn) - Creeping Bentgrass ([2]; Rate 0.7 gN/m^2, Day 28): 6.7b %
Phytotoxicity (% Burn) - Creeping Bentgrass ([2]; Rate 0.7 gN/m^2, Day 35): 3.3d %
Phytotoxicity (% Burn) - Creeping Bentgrass ([2]; Rate 0.7 gN/m^2, Day 42): 1.7c %
Phytotoxicity (% Burn) - Creeping Bentgrass ([2]; Rate 1.4 gN/m^2, Day 7): 15.0c %
Phytotoxicity (% Burn) - Creeping Bentgrass ([2]; Rate 1.4 gN/m^2, Day 14): 58.3b %
Phytotoxicity (% Burn) - Creeping Bentgrass ([2]; Rate 1.4 gN/m^2, Day 21): 51.7b %
Phytotoxicity (% Burn) - Creeping Bentgrass ([2]; Rate 1.4 gN/m^2, Day 28): 18.3ab %
Phytotoxicity (% Burn) - Creeping Bentgrass ([2]; Rate 1.4 gN/m^2, Day 35): 56.7b %
Phytotoxicity (% Burn) - Creeping Bentgrass ([2]; Rate 1.4 gN/m^2, Day 42): 31.7b %
Phytotoxicity (% Burn) - Creeping Bentgrass ([2]; Rate 2.8 gN/m^2, Day 7): 36.7a %
Phytotoxicity (% Burn) - Creeping Bentgrass ([2]; Rate 2.8 gN/m^2, Day 14): 78.3a %
Phytotoxicity (% Burn) - Creeping Bentgrass ([2]; Rate 2.8 gN/m^2, Day 21): 73.3a %
Phytotoxicity (% Burn) - Creeping Bentgrass ([2]; Rate 2.8 gN/m^2, Day 28): 35.0a %
Phytotoxicity (% Burn) - Creeping Bentgrass ([2]; Rate 2.8 gN/m^2, Day 35): 83.3a %
Phytotoxicity (% Burn) - Creeping Bentgrass ([2]; Rate 2.8 gN/m^2, Day 42): 78.3a %
Phytotoxicity (% Burn) - Tall fescue grass ([3]; 3-split, 2.0 lb N/1000 ft^2, Day 7): 15.0b %
Phytotoxicity (% Burn) - Tall fescue grass ([3]; 3-split, 2.0 lb N/1000 ft^2, Day 14): 6.7b %
Phytotoxicity (% Burn) - Tall fescue grass ([3]; 3-split, 2.0 lb N/1000 ft^2, Day 21): 1.7b %
Phytotoxicity (% Burn) - Tall fescue grass ([3]; 3-split, 2.0 lb N/1000 ft^2, Day 28): 0.0a %
Phytotoxicity (% Burn) - Tall fescue grass ([3]; 3-split, 2.0 lb N/1000 ft^2, Day 35): 0.0a %
Phytotoxicity (% Burn) - Tall fescue grass ([3]; 6-split, 1.0 lb N/1000 ft^2, Day 7): 10.0c %
Phytotoxicity (% Burn) - Tall fescue grass ([3]; 6-split, 1.0 lb N/1000 ft^2, Day 14): 1.7bc %
Phytotoxicity (% Burn) - Tall fescue grass ([3]; 6-split, 1.0 lb N/1000 ft^2, Day 21): 0.0b %
Phytotoxicity (% Burn) - Tall fescue grass ([3]; 6-split, 1.0 lb N/1000 ft^2, Day 28): 0.0a %
Phytotoxicity (% Burn) - Tall fescue grass ([3]; 6-split, 1.0 lb N/1000 ft^2, Day 35): 0.0a %

NC(N)=O [Urea, urea, reference compound]
Injury 1-9 (9 = no injury) ([4]; 1.09 Lbs. product/1000 square feet): 8.3
Injury 1-9 (9 = no injury) ([4]; 2.17 Lbs. product/1000 square feet): 8.7
Injury 1-9 (9 = no injury) ([4]; 6.51 Lbs. product/1000 square feet): 8.7
